# Source: patent publication US20230414599A1, “NICOTINAMIDE, NICOTINAMIDE PRECURSORS AND NICOTINAMIDE METABOLITES AND COMPOSITIONS THEREOF FOR REDUCING THE TIME TO RESOLUTION OF SYMPTOMS IN PATIENTS WITH COVID-19 AND OTHER VIRAL INFECTIONS” (CONARIS RESEARCH INSTITUTE AG, priority 2020, published 2023)
# Like-named read-outs stand apart in the source and are kept apart here.
# Tested on: COVID-19
# Conditions: 500 mg IR + 500 mg CICR-NAM daily; for Ability to perform normal activities, complaint scale 0-6, mean change / Ability to perform normal activities, complaint scale 0-6, median change: week 6 - baseline
# [1] = week 4, current or former smokers, n = 75
# [2] = week 4, patients with cough and fever, n = 15
# [3] = week 4, patients with cough, n = 106
# [4] = week 4, patients with fever, n = 21
# [5] = week 4, ≥1 risk factor for severe COVID-19, n = 117
# [6] = BMI ≥30.0 or type 2 diabetes, n = 27
# [7] = current or former smokers, n = 75
# [8] = patients with cough and fever, n = 15
# [9] = ≥1 risk factor for severe COVID-19, n = 117
# [10] = week 6, BMI ≥30.0 or type 2 diabetes, n = 27
# [11] = week 6, current or former smokers, n = 75
# [12] = week 6, patients with cough and fever, n = 15
# [13] = week 6, patients with cough, n = 106
# [14] = week 6, patients with fever, n = 21
# [15] = week 6, ≥1 risk factor for severe COVID-19, n = 117
smiles,measurement,setting,value
"NC(=O)c1cccnc1 [Nicotinamide, nicotinamide]","Ability to perform normal activities worse vs baseline, % of patients",[1],6.67%
same,"Ability to perform normal activities worse vs baseline, patients",[1],5
same,"Ability to perform normal activities, complaint scale 0-6, mean",[1],0.920
same,"Ability to perform normal activities, complaint scale 0-6, median",[1],0.000
same,"Reduced physical performance constant vs baseline, % of patients",[1],38.67%
same,"Reduced physical performance constant vs baseline, patients",[1],29
same,"Reduced physical performance improved vs baseline, % of patients",[1],56.00%
same,"Reduced physical performance improved vs baseline, patients",[1],42
same,"Reduced physical performance worse vs baseline, % of patients",[1],5.33%
same,"Reduced physical performance worse vs baseline, patients",[1],4
same,"Ability to perform normal activities, complaint scale 0-6, mean",[2],1.200
same,"Ability to perform normal activities, complaint scale 0-6, median",[2],0.0
same,"Ability to perform normal activities, complaint scale 0-6, mean",[3],0.736
same,"Ability to perform normal activities, complaint scale 0-6, median",[3],0.0
same,"Ability to perform normal activities, complaint scale 0-6, mean",[4],1.048
same,"Ability to perform normal activities, complaint scale 0-6, median",[4],0.0
same,"Ability to perform normal activities constant vs baseline, % of patients",[5],8.55%
same,"Ability to perform normal activities constant vs baseline, patients",[5],10
same,"Ability to perform normal activities improved vs baseline, % of patients",[5],84.62%
same,"Ability to perform normal activities improved vs baseline, patients",[5],99
same,"Ability to perform normal activities worse vs baseline, % of patients",[5],6.84%
same,"Ability to perform normal activities worse vs baseline, patients",[5],8
same,"Ability to perform normal activities, complaint scale 0-6, mean",[5],0.880
same,"Ability to perform normal activities, complaint scale 0-6, median",[5],0.0
same,"Reduced physical performance constant vs baseline, % of patients",[5],47.86%
same,"Reduced physical performance constant vs baseline, patients",[5],56
same,"Reduced physical performance improved vs baseline, % of patients",[5],47.01%
same,"Reduced physical performance improved vs baseline, patients",[5],55
same,"Reduced physical performance worse vs baseline, % of patients",[5],5.13%
same,"Reduced physical performance worse vs baseline, patients",[5],6
same,"Ability to perform normal activities, complaint scale 0-6, mean change",[6],−1.741
same,"Ability to perform normal activities, complaint scale 0-6, median change",[6],−2.000
same,"Ability to perform normal activities, complaint scale 0-6, mean change",[7],−2.587
same,"Ability to perform normal activities, complaint scale 0-6, median change",[7],−3.000
same,"Ability to perform normal activities, complaint scale 0-6, mean change",[8],−2.933
same,"Ability to perform normal activities, complaint scale 0-6, median change",[8],−3.0
same,"Ability to perform normal activities, complaint scale 0-6, mean change","patients with cough, n = 106",−2.255
same,"Ability to perform normal activities, complaint scale 0-6, median change","patients with cough, n = 106",−2.0
same,"Ability to perform normal activities, complaint scale 0-6, mean change","patients with fever, n = 21",−3.238
same,"Ability to perform normal activities, complaint scale 0-6, median change","patients with fever, n = 21",−4.0
same,"Ability to perform normal activities, complaint scale 0-6, mean change",[9],−2.419
same,"Ability to perform normal activities, complaint scale 0-6, median change",[9],−3.0
same,"Ability to perform normal activities constant vs baseline, % of patients",[10],11.11%
same,"Ability to perform normal activities constant vs baseline, patients",[10],3
same,"Ability to perform normal activities improved vs baseline, % of patients",[10],74.07%
same,"Ability to perform normal activities improved vs baseline, patients",[10],20
same,"Ability to perform normal activities worse vs baseline, % of patients",[10],14.81%
same,"Ability to perform normal activities worse vs baseline, patients",[10],4
same,"Ability to perform normal activities, complaint scale 0-6, mean",[10],1.296
same,"Ability to perform normal activities, complaint scale 0-6, median",[10],1.000
same,"Cough complaint scale 0-6, mean",[10],0.370
same,"Cough complaint scale 0-6, median",[10],0.000
same,"Ability to perform normal activities constant vs baseline, % of patients",[11],12.00%
same,"Ability to perform normal activities constant vs baseline, patients",[11],9
same,"Ability to perform normal activities improved vs baseline, % of patients",[11],82.67%
same,"Ability to perform normal activities improved vs baseline, patients",[11],62
same,"Ability to perform normal activities worse vs baseline, % of patients",[11],5.33%
same,"Ability to perform normal activities worse vs baseline, patients",[11],4
same,"Ability to perform normal activities, complaint scale 0-6, mean",[11],0.787
same,"Ability to perform normal activities, complaint scale 0-6, median",[11],0.000
same,"Presence of cough constant vs baseline, % of patients",[11],54.67%
same,"Presence of cough constant vs baseline, patients",[11],41
same,"Presence of cough improved vs baseline, % of patients",[11],42.67%
same,"Presence of cough improved vs baseline, patients",[11],32
same,"Presence of cough worse vs baseline, % of patients",[11],2.67%
same,"Presence of cough worse vs baseline, patients",[11],2
same,"Reduced physical performance constant vs baseline, % of patients",[11],38.67%
same,"Reduced physical performance constant vs baseline, patients",[11],29
same,"Reduced physical performance improved vs baseline, % of patients",[11],56.00%
same,"Reduced physical performance improved vs baseline, patients",[11],42
same,"Reduced physical performance worse vs baseline, % of patients",[11],5.33%
same,"Reduced physical performance worse vs baseline, patients",[11],4
same,"Ability to perform normal activities, complaint scale 0-6, mean",[12],1.067
same,"Ability to perform normal activities, complaint scale 0-6, median",[12],0.0
same,"Ability to perform normal activities, complaint scale 0-6, mean",[13],0.660
same,"Ability to perform normal activities, complaint scale 0-6, median",[13],0.0
same,"Ability to perform normal activities, complaint scale 0-6, mean",[14],0.762
same,"Ability to perform normal activities, complaint scale 0-6, median",[14],0.0
same,"Ability to perform normal activities constant vs baseline, % of patients",[15],11.97%
same,"Ability to perform normal activities constant vs baseline, patients",[15],14
same,"Ability to perform normal activities improved vs baseline, % of patients",[15],82.05%
same,"Ability to perform normal activities improved vs baseline, patients",[15],96
same,"Ability to perform normal activities worse vs baseline, % of patients",[15],5.98%
same,"Ability to perform normal activities worse vs baseline, patients",[15],7
same,"Ability to perform normal activities, complaint scale 0-6, mean",[15],0.769
same,"Ability to perform normal activities, complaint scale 0-6, median",[15],0.0
same,"Fatigue constant vs baseline, % of patients",[15],38.46%
same,"Fatigue constant vs baseline, patients",[15],45
same,"Fatigue improved vs baseline, % of patients",[15],59.83%
same,"Fatigue improved vs baseline, patients",[15],70
same,"Fatigue worse vs baseline, % of patients",[15],1.71%
same,"Fatigue worse vs baseline, patients",[15],2
same,"Reduced physical performance constant vs baseline, % of patients",[15],40.17%
same,"Reduced physical performance constant vs baseline, patients",[15],47
same,"Reduced physical performance improved vs baseline, % of patients",[15],54.70%
same,"Reduced physical performance improved vs baseline, patients",[15],64
same,"Reduced physical performance worse vs baseline, % of patients",[15],5.13%
same,"Reduced physical performance worse vs baseline, patients",[15],6
